The source of these data is US7612200B2, “Inhibitors of protein kinases” (Locus Pharmaceuticals, Inc., priority 2004, dated 2009).

For orientation: inhibition means the share of the control response that was lost under treatment. A lower inhibition goes with little suppression.

Common to all, as to format: biochemical
One assay deals with Src (Homo sapiens, UniProt P12931). Description: Kinase activity at ATP Km,app, Src. The note with it: 40 min, compound 2 μM. On the procedure: cSRC Kinase Activity: In a final reaction volume of 25 μl, cSRC (h) (5-'0 mU) is incubated with 8 mM MOPS pH 7.0, 0.2 mM EDTA, 250 μM KVEKIGEGTYGVVYK (Cdc2 peptide), 10 mM MgAcetate and [γ-^33P-ATP] (specific activity approx. 500 cpm/pmol, concentratin as required). The reaction is initiated by the addition of the MgATP mix. After incubation for 40 minutes at room temperature, the reaction is stopped by the addition of 5 μl of a 3% phosphoric acid solution. 10 μl of the reaction is then spotted onto a P30 filtermat and washed three times for 5 minutes in 75 mM phosphoric acid and once in methanol prior to drying and scintillation counting.

For a further assay, the target named is PKC-alpha (Homo sapiens, UniProt P17252). Description: Kinase activity at ATP Km,app, PKC-alpha. The note with it: 40 min, compound 2 μM. On the procedure: PKCα Kinase Activity: In a final reaction volume of 25 μl, PKCα (h) (5-10 mU) is incubated with 20 mM HEPES pH 7.4, 0.03% Triton X-100, 0.1 mM CaCl2, 0.1 mg/ml phosphatidylserine, 10 μg/ml diacylglycerol, 0.1 mg/ml histone Hi, 10 mM MgAcetate and [γ-^33P-ATP] (specific activity approx. 500 cpm/pmol, concentration as required). The reaction is initiated by the addition of the MgATP mix. After incubation for 40 minutes at room temperature, the reaction is stopped by the addition of 5 μl of a 3% phosphoric acid solution. 10 μl of the reaction is then spotted onto a P30 filtermat and washed three times for 5 minutes in 75 mM phosphoric acid and once in methanol prior to drying and scintillation counting.

The target of a further assay is FGFR1 (Homo sapiens, UniProt P11362). Kind of assay: Kinase activity at ATP Km,app, FGFR1. The note with it: compound 2 μM.
The next assay deals with T1, Flt3 (Homo sapiens, UniProt P36888).
T1 sequence (P36888 27-993): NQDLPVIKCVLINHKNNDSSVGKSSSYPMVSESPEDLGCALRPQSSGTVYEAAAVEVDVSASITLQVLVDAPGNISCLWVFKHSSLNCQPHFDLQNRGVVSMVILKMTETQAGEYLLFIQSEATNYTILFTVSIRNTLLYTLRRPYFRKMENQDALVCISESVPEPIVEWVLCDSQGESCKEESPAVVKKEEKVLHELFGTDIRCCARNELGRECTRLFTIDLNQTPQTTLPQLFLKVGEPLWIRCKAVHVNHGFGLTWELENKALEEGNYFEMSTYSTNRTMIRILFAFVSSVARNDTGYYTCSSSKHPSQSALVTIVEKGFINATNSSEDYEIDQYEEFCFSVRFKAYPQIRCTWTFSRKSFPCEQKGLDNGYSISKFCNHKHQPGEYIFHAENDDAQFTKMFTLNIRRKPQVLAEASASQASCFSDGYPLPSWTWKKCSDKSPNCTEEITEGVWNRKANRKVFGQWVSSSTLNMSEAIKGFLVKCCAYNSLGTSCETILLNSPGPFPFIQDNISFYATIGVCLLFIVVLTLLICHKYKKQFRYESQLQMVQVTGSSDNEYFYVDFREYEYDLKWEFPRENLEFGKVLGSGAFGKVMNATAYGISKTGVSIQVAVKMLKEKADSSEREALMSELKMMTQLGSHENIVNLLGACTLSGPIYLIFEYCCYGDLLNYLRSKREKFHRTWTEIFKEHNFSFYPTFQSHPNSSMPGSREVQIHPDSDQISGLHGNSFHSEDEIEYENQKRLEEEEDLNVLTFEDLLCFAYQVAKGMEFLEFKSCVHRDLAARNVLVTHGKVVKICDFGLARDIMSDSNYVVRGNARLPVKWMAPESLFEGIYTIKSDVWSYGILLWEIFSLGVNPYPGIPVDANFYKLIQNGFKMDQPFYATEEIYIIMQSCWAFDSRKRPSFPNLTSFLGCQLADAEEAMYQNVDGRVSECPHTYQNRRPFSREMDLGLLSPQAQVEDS
Kind of assay: Kinase activity at ATP Km,app, Flt3. The note with it: 40 min, compound 2 μM. How it is done:
(§1) Flt3 Kinase Activity: In a final reaction volume of 25 μl, Flt3 (h) (5-10 mU) is incubated with 8 mM MOPS pH 7.0, 0.2 mM EDTA, 50 μM EAIYAAPFAKKK, 10 mM MgAcetate and [γ-^33P-ATP] (specific activity approx. 500 cpm/pmol, concentration as required). The reaction is initiated by the addition of the MgATP mix. After incubation for 40 minutes at room temperature, the reaction is stopped by the addition of 5 ml of a 3% phosphoric acid solution. 10 ml of the reaction is then spotted onto a P30 filtermat and washed three times for 5 minutes in 75 mM phosphoric acid and once in methanol prior to drying and scintillation counting.

For another assay, the target named is PDGFR-beta (Homo sapiens, UniProt P09619). Description: Kinase activity at ATP Km,app, PDGFR-beta. The note with it: 40 min, compound 2 μM. How it is done: as §1, with “PDGFRβ” for “Flt3”, “7.0” for “7.0,”, “0.1 mg/ml poly(Glu, Tyr) 4:1, 10 mM MnCl2,” for “50 μM EAIYAAPFAKKK,”, “μl” for “ml”, “Filtermat A” for “P30 filtermat”
Another assay deals with Akt1 (Homo sapiens, UniProt P31749). Description: Kinase activity at ATP Km,app, Akt1. The note with it: compound 2 μM.
In another assay the target is c-MET (Homo sapiens, UniProt P08581). Kind of assay: Kinase activity at ATP Km,app, c-MET. The note with it: compound 2 μM. How it is done: as §1, with “Met Kinase” for “Flt3 Kinase”, “μl, Met” for “μl, Flt3”, “EDTA, 250” for “EDTA, 50”, “μM KKKSPEGYVNIEFG,” for “μM EAIYAAPFAKKK,”, “5 μl” for “5 ml”, “10 μl” for “10 ml”
c-MET, sequence (P08581 25-1390): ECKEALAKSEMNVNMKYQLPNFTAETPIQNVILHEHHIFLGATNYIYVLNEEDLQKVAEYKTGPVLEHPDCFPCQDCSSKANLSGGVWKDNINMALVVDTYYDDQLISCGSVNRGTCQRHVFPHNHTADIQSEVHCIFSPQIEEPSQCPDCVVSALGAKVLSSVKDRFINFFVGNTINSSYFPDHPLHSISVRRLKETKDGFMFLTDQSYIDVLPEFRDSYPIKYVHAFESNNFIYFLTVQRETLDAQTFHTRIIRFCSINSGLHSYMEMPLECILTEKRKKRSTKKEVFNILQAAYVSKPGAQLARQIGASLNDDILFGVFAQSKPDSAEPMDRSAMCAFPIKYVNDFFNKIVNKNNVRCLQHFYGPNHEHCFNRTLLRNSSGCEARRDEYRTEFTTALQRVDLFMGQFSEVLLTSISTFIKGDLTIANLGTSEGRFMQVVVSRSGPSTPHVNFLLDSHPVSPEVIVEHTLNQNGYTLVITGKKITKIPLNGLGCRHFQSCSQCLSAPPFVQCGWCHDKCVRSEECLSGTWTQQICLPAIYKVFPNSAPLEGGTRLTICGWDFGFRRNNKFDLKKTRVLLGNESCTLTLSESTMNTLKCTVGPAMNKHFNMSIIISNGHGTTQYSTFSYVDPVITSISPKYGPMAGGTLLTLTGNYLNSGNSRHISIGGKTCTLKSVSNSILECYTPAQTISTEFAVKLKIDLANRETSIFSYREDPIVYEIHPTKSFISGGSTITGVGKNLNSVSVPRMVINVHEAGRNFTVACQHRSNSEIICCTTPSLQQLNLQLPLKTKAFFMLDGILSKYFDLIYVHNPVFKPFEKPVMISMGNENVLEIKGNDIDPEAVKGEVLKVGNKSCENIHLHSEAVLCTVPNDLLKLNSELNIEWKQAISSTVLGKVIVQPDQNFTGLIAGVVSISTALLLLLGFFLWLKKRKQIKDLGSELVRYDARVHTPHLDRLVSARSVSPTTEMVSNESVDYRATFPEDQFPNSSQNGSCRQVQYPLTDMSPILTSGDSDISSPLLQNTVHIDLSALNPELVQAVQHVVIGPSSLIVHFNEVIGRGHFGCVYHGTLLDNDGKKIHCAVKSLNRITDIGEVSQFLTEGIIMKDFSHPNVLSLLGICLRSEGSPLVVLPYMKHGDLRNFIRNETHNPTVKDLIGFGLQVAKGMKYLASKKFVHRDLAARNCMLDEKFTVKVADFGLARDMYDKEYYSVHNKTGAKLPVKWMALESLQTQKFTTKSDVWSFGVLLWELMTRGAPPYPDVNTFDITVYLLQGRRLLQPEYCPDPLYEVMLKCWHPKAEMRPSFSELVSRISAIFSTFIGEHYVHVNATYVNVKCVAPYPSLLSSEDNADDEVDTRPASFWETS

Src, sequence (P12931 whole entry): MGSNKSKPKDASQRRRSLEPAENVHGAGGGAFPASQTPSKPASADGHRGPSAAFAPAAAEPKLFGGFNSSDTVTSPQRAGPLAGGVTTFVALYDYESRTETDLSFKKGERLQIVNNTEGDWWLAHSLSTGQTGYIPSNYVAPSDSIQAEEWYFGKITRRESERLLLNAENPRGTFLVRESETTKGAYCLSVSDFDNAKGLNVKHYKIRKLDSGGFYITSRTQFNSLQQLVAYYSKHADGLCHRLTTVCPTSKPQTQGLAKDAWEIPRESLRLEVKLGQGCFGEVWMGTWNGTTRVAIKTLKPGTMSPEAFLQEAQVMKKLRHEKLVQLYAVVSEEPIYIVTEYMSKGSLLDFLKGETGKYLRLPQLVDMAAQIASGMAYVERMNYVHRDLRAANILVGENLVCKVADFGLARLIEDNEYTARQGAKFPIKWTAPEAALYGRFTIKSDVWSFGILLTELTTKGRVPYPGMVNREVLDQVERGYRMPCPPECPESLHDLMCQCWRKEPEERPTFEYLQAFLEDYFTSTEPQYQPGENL
Akt1, sequence (P31749 whole entry, species assumed): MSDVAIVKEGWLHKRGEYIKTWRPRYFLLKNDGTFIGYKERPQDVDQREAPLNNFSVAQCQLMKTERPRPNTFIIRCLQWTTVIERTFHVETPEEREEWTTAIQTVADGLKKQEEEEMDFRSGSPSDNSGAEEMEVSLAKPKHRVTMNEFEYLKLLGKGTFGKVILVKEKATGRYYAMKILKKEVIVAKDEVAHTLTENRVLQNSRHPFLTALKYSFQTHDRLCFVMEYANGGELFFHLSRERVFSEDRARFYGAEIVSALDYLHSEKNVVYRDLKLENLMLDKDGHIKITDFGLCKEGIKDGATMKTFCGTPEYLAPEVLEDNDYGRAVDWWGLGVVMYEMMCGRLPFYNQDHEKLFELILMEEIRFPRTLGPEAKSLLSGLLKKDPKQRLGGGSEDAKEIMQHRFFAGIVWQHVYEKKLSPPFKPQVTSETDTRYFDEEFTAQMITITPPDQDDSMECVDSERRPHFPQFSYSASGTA
FGFR1, sequence (P11362 22-822, species assumed): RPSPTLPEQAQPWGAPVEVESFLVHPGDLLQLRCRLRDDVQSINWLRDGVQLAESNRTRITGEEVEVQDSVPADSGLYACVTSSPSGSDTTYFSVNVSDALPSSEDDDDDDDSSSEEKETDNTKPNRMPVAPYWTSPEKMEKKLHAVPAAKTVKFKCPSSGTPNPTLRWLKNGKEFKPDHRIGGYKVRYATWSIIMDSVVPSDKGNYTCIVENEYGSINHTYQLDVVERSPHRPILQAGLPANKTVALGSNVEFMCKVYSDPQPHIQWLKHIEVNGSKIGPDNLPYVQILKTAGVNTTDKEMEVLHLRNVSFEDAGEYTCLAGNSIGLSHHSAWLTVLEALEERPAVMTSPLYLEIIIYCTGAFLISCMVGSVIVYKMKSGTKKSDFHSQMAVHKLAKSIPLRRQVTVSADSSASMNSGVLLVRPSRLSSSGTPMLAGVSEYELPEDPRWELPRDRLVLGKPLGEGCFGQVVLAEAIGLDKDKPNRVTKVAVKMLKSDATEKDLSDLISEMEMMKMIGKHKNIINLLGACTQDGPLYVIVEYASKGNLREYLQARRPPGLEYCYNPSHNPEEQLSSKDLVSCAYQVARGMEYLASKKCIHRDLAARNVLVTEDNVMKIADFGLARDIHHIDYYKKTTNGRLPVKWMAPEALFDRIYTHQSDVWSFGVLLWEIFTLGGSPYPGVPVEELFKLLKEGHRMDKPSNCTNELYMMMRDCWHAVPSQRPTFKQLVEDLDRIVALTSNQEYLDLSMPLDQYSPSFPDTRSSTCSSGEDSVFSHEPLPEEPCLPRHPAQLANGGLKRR
PDGFR-beta, sequence (P09619 33-1106): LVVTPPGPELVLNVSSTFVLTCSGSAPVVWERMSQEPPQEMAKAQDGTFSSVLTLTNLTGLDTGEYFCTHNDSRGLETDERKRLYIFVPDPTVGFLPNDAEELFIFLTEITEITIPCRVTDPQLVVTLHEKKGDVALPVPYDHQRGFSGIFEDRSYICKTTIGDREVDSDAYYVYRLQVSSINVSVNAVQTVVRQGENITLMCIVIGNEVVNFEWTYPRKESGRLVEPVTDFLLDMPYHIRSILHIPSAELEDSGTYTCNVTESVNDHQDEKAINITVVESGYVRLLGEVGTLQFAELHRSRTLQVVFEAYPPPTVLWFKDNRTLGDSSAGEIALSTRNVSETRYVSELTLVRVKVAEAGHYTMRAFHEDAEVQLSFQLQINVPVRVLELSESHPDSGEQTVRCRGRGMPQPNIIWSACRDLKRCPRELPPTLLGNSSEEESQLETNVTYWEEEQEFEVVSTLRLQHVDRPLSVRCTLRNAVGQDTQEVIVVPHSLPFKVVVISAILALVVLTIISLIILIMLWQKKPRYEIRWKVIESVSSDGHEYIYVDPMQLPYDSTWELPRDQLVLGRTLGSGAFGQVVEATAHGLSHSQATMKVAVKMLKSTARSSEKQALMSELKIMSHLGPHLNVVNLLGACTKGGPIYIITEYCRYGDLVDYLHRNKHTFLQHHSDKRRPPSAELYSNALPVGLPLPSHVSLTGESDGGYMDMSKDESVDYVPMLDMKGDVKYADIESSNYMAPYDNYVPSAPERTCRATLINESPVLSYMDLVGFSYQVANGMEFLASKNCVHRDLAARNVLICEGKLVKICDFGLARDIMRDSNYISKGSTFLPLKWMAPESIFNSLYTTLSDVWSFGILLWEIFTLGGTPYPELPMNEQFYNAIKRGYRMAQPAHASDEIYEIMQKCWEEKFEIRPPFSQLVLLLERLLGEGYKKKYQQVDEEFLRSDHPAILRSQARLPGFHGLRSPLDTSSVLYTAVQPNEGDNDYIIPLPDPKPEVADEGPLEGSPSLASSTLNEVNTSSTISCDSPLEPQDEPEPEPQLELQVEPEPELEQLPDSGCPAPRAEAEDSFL

For `CC(C)(C)c1cc(C(=O)N2CCNC(=O)C2)c(NC(=O)Nc2ccc(Oc3ccncc3)cc2)s1` [Example 2, 1-(5-tert-Butyl-3-(3-oxo-piperazine-1-carbonyl)thiophen-2-yl)-3-(4-(pyridin-4-yloxy)phenyl)urea], the inhibition at 2 µM against Src was in the range of 0 to 25%; at PKC-alpha, 0 to 25%; on FGFR1, 0 to 25%; against Flt3, 76 to 100%; on PDGFR-beta it was 26 to 50%; against Akt1, 0 to 25%. Also, the “% Inhibition at ATP Km,app” value at c-MET is reported as 26-50%.

For the molecule `CC(C)(C)c1cc(C(=O)N2CCNS(=O)(=O)CC2)c(NC(=O)Nc2ccc(Oc3ccncc3)cc2)s1` [Example 1, 1-(5-tert-Butyl-3-(1,1-dioxo-1λ^6-[1,2,5]thiadiazepane-5-carbonyl)thiophen-2-yl)-3-(4-(pyridin-4-yloxy)phenyl)urea], the inhibition at 2 µM against Src fell in the range of 0 to 25%; at PKC-alpha, 0 to 25%; at FGFR1 it was 0 to 25%; at Flt3, 76 to 100%; on PDGFR-beta it was 26 to 50%; at Akt1, 0 to 25%. On c-MET, the “% Inhibition at ATP Km,app” value is on record as 0-25%.

Regarding `CC(C)(C)c1cc(C(=O)N2CCNC(=O)CC2)c(NC(=O)Nc2ccc(Oc3ccncc3)cc2)s1` [Example 4, 1-(5-tert-Butyl-3-(5-oxo-[1,4]diazepane-1-carbonyl)thiophen-2-yl)-3-(4-(pyridin-4-yloxy)phenyl)urea], the inhibition at 2 µM is 0 to 25% at Src; 0 to 25% on PKC-alpha; 26 to 50% against FGFR1; 76 to 100% against Flt3; 26 to 50% on PDGFR-beta; 0 to 25% against Akt1. Moreover, the “% Inhibition at ATP Km,app” value on c-MET is 0-25%.
